Some test systems named below: A498; A549; COLO 205; HCT-116; HL-60; HOP-62; HOP-92; Hs-578T; Malme-3M; NCI-H226; OVCAR-3; OVCAR-5; RPMI-8226; SK-MEL-2; SK-MEL-5; SN12C; T47D; UACC-62; NCI-H522.
Holding throughout (assay): DTP human tumour cell line panel, 48 h

The source of these data is ChEMBL document CHEMBL1201862, “PubChem BioAssay data set” (2004).

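Dose response: 5 concentrations. Exposure: 48 h. Format: 96-well plates. Endpoint: linear interpolation; highest concentration if not reached. GI50 marks 50% less growth.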 Active and inactive are the calls of the source. Cut-off read from the data, not from the text of the source: active = GI50 up to about 1.1 µM and inactive = higher.

By GI50 is commonly meant the concentration at which growth is held to half of that of the control. In the case of `Nc1cc2nc(O)c(O)nc2cc1N`, the GI50 in the assay on A498, with A549, in the assay on COLO 205, with HCT-116, in the assay on HL-60 and with HOP-62 was > 100 µM (inactive) in each case. The GI50 in the assay with HOP-92, with Hs-578T, with Malme-3M, in the assay with NCI-H226, in the assay on OVCAR-3 and in the assay on OVCAR-5 was > 100 µM (inactive) each time. The GI50 in the assay with RPMI-8226, in the assay on SK-MEL-2, with SK-MEL-5, with SN12C, with T47D and in the assay on UACC-62 was > 100 µM (inactive) in each case.

In the case of `Cc1cc(C)n(-c2nc3ccccc3c(=O)[nH]2)n1`, the GI50 in the assay on A498 was 23.2 µM (inactive); in the assay on A549 it was 2.95 µM (inactive); in the assay on COLO 205, 2.43 µM (inactive); with HCT-116, 1.88 µM (inactive); with HL-60, 1.32 µM (inactive); in the assay on HOP-62 it was 2.29 µM (inactive). The GI50 was 21.7 µM (inactive) in the assay with HOP-92; 24.8 µM (inactive) in the assay on Hs-578T; 2.81 µM (inactive) in the assay on NCI-H522; 4.11 µM (inactive) in the assay with OVCAR-3; > 77.3 µM (inactive) with OVCAR-5; 3.92 µM (inactive) in the assay with RPMI-8226. In addition, the GI50 with SK-MEL-2 is 8.47 µM (inactive); in the assay on SK-MEL-5 it was 2.64 µM (inactive); in the assay on SN12C, 4.34 µM (inactive); with T47D, 11 µM (inactive); in the assay on UACC-62 it was 2.78 µM (inactive).

With `O=C(n1c(=O)n(-c2ccc([N+](=O)[O-])cc2)c(=O)n1C(=O)C(Cl)(Cl)Cl)C(Cl)(Cl)Cl`, the GI50 with A498, in the assay with A549, in the assay on COLO 205, with HCT-116, in the assay with HL-60 and in the assay with HOP-62 was > 100 µM (inactive) each time. Moreover, the GI50 in the assay on Hs-578T, with Malme-3M, in the assay with NCI-H226, with NCI-H522, in the assay with OVCAR-3 and in the assay on OVCAR-5 was > 100 µM (inactive) throughout. Moreover, the GI50 in the assay on RPMI-8226, in the assay on SK-MEL-2, in the assay with SK-MEL-5, in the assay with SN12C, in the assay with T47D and in the assay on UACC-62 was > 100 µM (inactive) in each case.

In the case of `O=c1c2c(-c3ccccc3)onc2n(-c2ccccc2)c(=O)n1-c1ccccc1`, the GI50 in the assay with A498 was > 100 µM (inactive); with A549, > 100 µM (inactive); in the assay with COLO 205, > 100 µM (inactive); in the assay on HCT-116, > 100 µM (inactive); with HOP-62, 21.8 µM (inactive); with HOP-92 it was > 100 µM (inactive). Besides, the GI50 in the assay on Hs-578T was 28.4 µM (inactive); in the assay on Malme-3M it was 17.5 µM (inactive); in the assay on NCI-H226, 26.1 µM (inactive); in the assay on NCI-H522 it was 15.7 µM (inactive); in the assay with OVCAR-3 it was 15.1 µM (inactive); in the assay with OVCAR-5 it was 16.4 µM (inactive). The GI50 in the assay on RPMI-8226 is > 100 µM (inactive); in the assay with SK-MEL-2, 11 µM (inactive); in the assay with SK-MEL-5, > 100 µM (inactive); with SN12C, > 100 µM (inactive); in the assay with T47D, > 100 µM (inactive); in the assay on UACC-62, 14.5 µM (inactive).

For the molecule `C=CCN1C(=O)/C(=C/c2ccccc2)N=C1SC/C=C/C`, the GI50 in the assay on A498 is 43.7 µM (inactive); in the assay on A549, 39.3 µM (inactive); in the assay with COLO 205, 52.2 µM (inactive); in the assay with HCT-116, 34.5 µM (inactive); in the assay with HOP-62, > 100 µM (inactive); in the assay with HOP-92, 12.2 µM (inactive). Further, the GI50 in the assay with Hs-578T was 69.5 µM (inactive); in the assay on NCI-H226, 31.8 µM (inactive); in the assay with NCI-H522 it was 33 µM (inactive); in the assay on OVCAR-3 it was > 100 µM (inactive); in the assay with RPMI-8226 it was 15.7 µM (inactive); in the assay with SK-MEL-2, 26.2 µM (inactive). Besides, the GI50 in the assay on SK-MEL-5 is 18.4 µM (inactive); in the assay with SN12C, 40.2 µM (inactive); in the assay on T47D, 20.2 µM (inactive); in the assay with UACC-62, 51.5 µM (inactive).

For the molecule `C=CCCC1CCCCNC1=S` (stereo unspecified), the GI50 in the assay on A498, in the assay on A549, with COLO 205, in the assay on HCT-116, in the assay with HL-60 and in the assay on HOP-62 was > 10 µM (inactive) in each case. For the same molecule, the GI50 with Hs-578T, in the assay with Malme-3M, with NCI-H226, with OVCAR-3, with OVCAR-5 and with RPMI-8226 was > 10 µM (inactive) in each case. In addition, the GI50 in the assay with SK-MEL-2, with SK-MEL-5, with SN12C, in the assay with T47D and with UACC-62 was > 10 µM (inactive) each time.

Regarding `NS(=O)(=O)c1ccc(NC(=S)NC=C2C(=O)c3ccccc3C2=O)cc1`, the GI50 with A498 is 71.9 µM (inactive); with A549 it was > 100 µM (inactive); with COLO 205, > 100 µM (inactive); in the assay on HCT-116, > 100 µM (inactive); in the assay with HL-60 it was > 100 µM (inactive); in the assay on HOP-62 it was > 100 µM (inactive). In addition, the GI50 in the assay on HOP-92 was 23.7 µM (inactive); in the assay with Hs-578T, 14.4 µM (inactive); in the assay with Malme-3M, > 100 µM (inactive); in the assay with NCI-H522 it was 65.9 µM (inactive); in the assay with OVCAR-3 it was 55.8 µM (inactive); in the assay with OVCAR-5 it was > 100 µM (inactive). Moreover, the GI50 in the assay with RPMI-8226 was 36.4 µM (inactive); with SK-MEL-2, 62.1 µM (inactive); in the assay with SK-MEL-5 it was 47 µM (inactive); in the assay with SN12C, > 100 µM (inactive); in the assay with T47D, 30.8 µM (inactive); in the assay on UACC-62, 56.2 µM (inactive).

For `CCOC(=O)C(Cc1ccc2c(c1)CCC2)Cc1ccc2c(c1)CCC2`, the GI50 in the assay with A498 was > 100 µM (inactive); in the assay on A549, > 100 µM (inactive); in the assay on HCT-116 it was 33.3 µM (inactive); in the assay with HL-60, 25.9 µM (inactive); in the assay on HOP-62, > 100 µM (inactive); with HOP-92, > 100 µM (inactive). The GI50 in the assay with Hs-578T is > 100 µM (inactive); in the assay with Malme-3M it was > 100 µM (inactive); in the assay on NCI-H522, 44.9 µM (inactive); in the assay with OVCAR-3, > 100 µM (inactive); in the assay with OVCAR-5, > 100 µM (inactive); in the assay with RPMI-8226, 44.4 µM (inactive). Besides, the GI50 was > 100 µM (inactive) in the assay on SK-MEL-2, 18.5 µM (inactive) in the assay on SK-MEL-5 and 53.1 µM (inactive) in the assay on T47D.

`N#CC(=N)c1ncn(-c2ccc(N)cc2)c1N`: the GI50 with A498, in the assay with A549, in the assay on COLO 205, with HCT-116, in the assay with HL-60 and with HOP-62 was > 100 µM (inactive) each time. For the same molecule, the GI50 in the assay on Hs-578T, with Malme-3M, in the assay with NCI-H226, in the assay on NCI-H522, in the assay with OVCAR-3 and in the assay on OVCAR-5 was > 100 µM (inactive) throughout. Moreover, the GI50 in the assay on RPMI-8226, in the assay with SK-MEL-2, with SK-MEL-5, in the assay with SN12C, in the assay with T47D and in the assay with UACC-62 was > 100 µM (inactive) each time.

Regarding `Cc1ccc(/N=N/C(=N/NC(=O)c2ccccc2)c2ccc(N(CCC#N)CCC#N)cc2C)cc1`, the GI50 in the assay with A498 is 19.8 µM (inactive); with A549, 34.3 µM (inactive); in the assay on COLO 205 it was 35.2 µM (inactive); in the assay on HCT-116 it was 29.3 µM (inactive); in the assay with HL-60, 12.2 µM (inactive); with HOP-62, 41.6 µM (inactive). The GI50 in the assay on Hs-578T is 13 µM (inactive); with Malme-3M it was 43.5 µM (inactive); in the assay on NCI-H226, 44 µM (inactive); with NCI-H522, 15.5 µM (inactive); in the assay on OVCAR-3, 12.5 µM (inactive); in the assay on OVCAR-5, > 100 µM (inactive). The GI50 was > 100 µM (inactive) with RPMI-8226; 50.4 µM (inactive) in the assay with SK-MEL-2; 13.4 µM (inactive) with SK-MEL-5; 40.8 µM (inactive) in the assay on SN12C; 37.4 µM (inactive) in the assay with T47D; 31 µM (inactive) with UACC-62.

Consider `COC(=O)CCC(=O)c1ccc2c(c1)CC1(C2)Cc2ccc(C(=O)CCC(=O)OC)cc2C1`, for which the GI50 in the assay on A498 was 45 µM (inactive); in the assay with A549, > 100 µM (inactive); with COLO 205, 94.4 µM (inactive); in the assay with HCT-116, > 100 µM (inactive); with HL-60, 56.2 µM (inactive); with HOP-62, 43.5 µM (inactive). The GI50 in the assay on HOP-92 is > 100 µM (inactive); with Hs-578T it was > 100 µM (inactive); with Malme-3M, > 100 µM (inactive); in the assay with NCI-H522 it was 55.1 µM (inactive); with OVCAR-3 it was 61.2 µM (inactive); with OVCAR-5, > 100 µM (inactive). The GI50 with RPMI-8226 is 35.2 µM (inactive); in the assay on SK-MEL-2 it was 0.61 µM (active); in the assay with SK-MEL-5, 17.3 µM (inactive); in the assay with SN12C, > 100 µM (inactive); with T47D, 56 µM (inactive); with UACC-62, > 100 µM (inactive).
